Patent US5658906A, “Cysteine protease and serine protease inhibitors” (Cephalon, Inc., priority 1996, dated 1997)

What was measured:
Format in all cases: biochemical
α-chymotrypsin = target: T1, α-chymotrypsin (Bos taurus, UniProt P00766); test: Inhibition of the serine protease α-chymotrypsin (Succ-Ala-Ala-Pro-Phe-AMC hydrolysis); settings: pH 7.5, 0.03 mM substrate
T1 construct: purchased Sigma Chem. Co. C-3142
Method: Additionally,because α-chymotrypsin is not a calcium sensitive enzyme and is constituitively active, following addition of inhibitor stocks to the 96 well plates, 100 ul of a 2 fold concentrated stock of enzyme in dilution buffer was first added and the reaction started by addition of 100 ul of a 2 fold concentrated stock of substrate in assay buffer. Substrate hydrolysis was monitored every 5 minutes up to 30 minutes using a Fluoroskan II ([…]).

Cathepsin L = target: T2, Cathepsin L (Homo sapiens, UniProt P07711); test: Inhibition and rate of inactivation of cathepsin L (Cbz-Phe-Arg-AMC hydrolysis); settings: pH 6.0, 0.006 mM substrate, read-out: k2 (second order rate constant of inactivation), B = Cathepsin L
T2 construct: purchased Calbiochem 219402
T2 sequence (P07711 114-333): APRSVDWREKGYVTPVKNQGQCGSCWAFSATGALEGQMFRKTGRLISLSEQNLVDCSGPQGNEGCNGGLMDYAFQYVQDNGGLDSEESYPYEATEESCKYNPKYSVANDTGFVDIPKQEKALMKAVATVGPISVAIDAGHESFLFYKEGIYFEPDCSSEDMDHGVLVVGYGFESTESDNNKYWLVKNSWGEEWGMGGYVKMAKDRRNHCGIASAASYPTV
Method: (§1) Additionally, the order of reagents added to the plate was altered because both enzymes are constitutively active. Following inhibitor addition to the plates appropriate 2× concentrated stock dilutions of the enzyme preparations were made in assay buffer and 100 ul added to each well. The assay was initiated by addition of 100 ul of 2× concentrated stock dilution of substrate in assay buffer. Substrate hydrolysis was monitored using a Fluroskan II (ex=390 nm; em=460 nm).
(§2) Inhibition of enzyme activity was calculated as the percent decrease in the rate of substrate hydrolysis in the presence of inhibitor (.upsilon.i) relative to the rate in its absence (.upsilon.o). Comparison between .upsilon.o and .upsilon.i was made within the linear range for substrate hydrolysis. For screening, compounds were tested at 10 μM. Compounds having ≥50% inhibition at 10 μM were considered active. Apparent second order rate constants were determined from analysis of reaction progress curves under pseudo-first order conditions. Each determination represents the mean of three or more independent single cuvette analyses continually monitored via a Perkin-Elmer LS50B spectrofluorimeter. The rate of inhibition of hydrolysis was obtained by fitting the curve to the exponential equation (1):
(§3) y=Ae^-k.spsb.obs·t +B (1)
(§4) where y (Pt) is the product formed at time t. A and B are constants. A, the amplitude of the reaction, is given by [Po -P.varies. ] and B (=P.varies.) is the maximal product formed when the reaction is […]. This was corrected for the presence of equation (2): […]

Cathepsin B = target: T3, Cathepsin B (Homo sapiens, UniProt P07858); test: Inhibition and rate of inactivation of cathepsin B (Cbz-Phe-Arg-AMC hydrolysis); settings: pH 6.0, 0.1 mM substrate, read-out: k2 (second order rate constant of inactivation), C = Cathepsin B
T3 construct: purchased Calbiochem 219364
Method: as §1, §2, §3, §4

SMILES	inhibition at 10 µM (α-chymotrypsin) [%]	kinact/KI (Cathepsin L) [M⁻¹ s⁻¹]	kinact/KI (Cathepsin B) [M⁻¹ s⁻¹]
CC(C)C[C@H](NC(=O)OCc1ccccc1)C(=O)N[C@@H](Cc1ccccc1)C(=O)COn1nnc2ccccc21 [Example 3, 1-[N-[N-Benzyloxycarbonyl-L-leucyl]-3S-4-phenyl-3-amino-2-oxobutyloxy]benzotriazole]	86	100000	117000
CC[C@H](NC(=O)[C@H](CC(C)C)NC(=O)OCc1ccccc1)C(=O)COn1nnc2ccccc21 [Example 5, 1-[N-[N-Benzyloxycarbonyl-L-leucyl]-3S-3-amino-2-oxopentyloxy] benzotriazole]	34	3e+06	443000
CC(C)C[C@H](NC(=O)OCc1ccccc1)C(=O)N[C@@H](Cc1ccccc1)C(=O)COn1nnc2cccnc21 [Example 6, 3-[N-[N-Benzyloxycarbonyl-L-leucyl]-3S-4-phenyl-3-amino-2-oxobutyloxy]-3H-triazolo[4,5-b]pyridine]	81	40000	107000
CC(C)C[C@H](NC(=O)OCc1ccccc1)C(=O)N[C@@H](Cc1ccccc1)C(=O)COn1nnc2ccccc2c1=O [Example 28, 1-[N-[N-Benzyloxycarbonyl-L-leucyl]-3S-4-phenyl-3-amino-2-oxobutyloxy]-3-benzotriazin-4-one]	82	70000	7000
